Measured values published in patent US5399585A, “Carboxamides and sulfonamides compounds which have useful pharmaceutical utility” (Hoffmann-La Roche Inc., priority 1989, dated 1995).

Target: T1, fibrinogen receptor of blood platelets, glycoprotein IIb/IIIa (Homo sapiens, UniProt P05106+P08514)
T1 construct: Glycoprotein IIb/IIIa is obtained from Triton X-100 extracts of human blood platelets; from tissue; host or cells: human blood platelets (Triton X-100 extract)
Assay: Inhibition of fibrinogen binding to immobilized glycoprotein IIb/IIIa (ELISA)
Details: purified glycoprotein IIb/IIIa from human blood platelets bound to microtitre plates, read-out: IC50 (concentration of test substance required to inhibit the binding of fibrinogen to the immobilized receptor by 50%)
Experimental: Glycoprotein IIb/IIIa is obtained from Triton X-100 extracts of human blood platelets and purified by lectin affinity chromatography (Analytical Biochemistry 151, 1985, 169-177) and chromatography on an Arg-Gly-Asp-Ser affinity column (Science 231, 1986, 1559-62). The receptor protein obtained in this way is bound to microtitre plates. The specific binding of fibrinogen to the immobilized receptor is determined using an ELISA system (enzyme-linked immunosorbent assay). The IC50 values hereinafter correspond to that concentration of the test substance required to inhibit the binding of fibrinogen to the immobilized receptor by 50%: […]

T1 sequence (P08514 32-887 limits assumed): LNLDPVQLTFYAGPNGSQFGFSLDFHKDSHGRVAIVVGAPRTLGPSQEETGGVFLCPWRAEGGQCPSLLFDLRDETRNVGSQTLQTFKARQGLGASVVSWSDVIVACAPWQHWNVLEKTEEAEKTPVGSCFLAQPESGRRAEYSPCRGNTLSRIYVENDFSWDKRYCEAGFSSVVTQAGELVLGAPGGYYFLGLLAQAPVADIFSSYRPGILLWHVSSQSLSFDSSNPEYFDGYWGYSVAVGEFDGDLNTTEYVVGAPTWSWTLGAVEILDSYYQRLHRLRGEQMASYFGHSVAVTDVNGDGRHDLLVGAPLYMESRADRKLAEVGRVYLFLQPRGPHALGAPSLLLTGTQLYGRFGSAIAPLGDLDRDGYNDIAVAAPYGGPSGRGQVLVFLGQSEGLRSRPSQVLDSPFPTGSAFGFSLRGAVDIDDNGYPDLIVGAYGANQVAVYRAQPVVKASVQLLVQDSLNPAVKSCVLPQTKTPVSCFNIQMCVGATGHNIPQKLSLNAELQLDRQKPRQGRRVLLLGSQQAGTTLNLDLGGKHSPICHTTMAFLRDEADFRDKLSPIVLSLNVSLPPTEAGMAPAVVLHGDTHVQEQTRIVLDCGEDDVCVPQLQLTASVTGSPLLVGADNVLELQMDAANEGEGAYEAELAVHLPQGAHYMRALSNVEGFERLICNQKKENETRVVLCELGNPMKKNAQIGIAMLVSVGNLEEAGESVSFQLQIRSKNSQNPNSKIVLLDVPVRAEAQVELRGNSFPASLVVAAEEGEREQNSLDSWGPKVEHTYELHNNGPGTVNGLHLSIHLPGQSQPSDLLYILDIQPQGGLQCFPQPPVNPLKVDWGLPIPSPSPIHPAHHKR
T1 sequence (P08514 891-1039 limits assumed): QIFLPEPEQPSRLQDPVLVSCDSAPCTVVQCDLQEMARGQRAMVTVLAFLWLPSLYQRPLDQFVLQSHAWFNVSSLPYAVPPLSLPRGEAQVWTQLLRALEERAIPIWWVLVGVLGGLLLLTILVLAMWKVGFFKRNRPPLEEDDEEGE
T1 sequence (P05106 27-788): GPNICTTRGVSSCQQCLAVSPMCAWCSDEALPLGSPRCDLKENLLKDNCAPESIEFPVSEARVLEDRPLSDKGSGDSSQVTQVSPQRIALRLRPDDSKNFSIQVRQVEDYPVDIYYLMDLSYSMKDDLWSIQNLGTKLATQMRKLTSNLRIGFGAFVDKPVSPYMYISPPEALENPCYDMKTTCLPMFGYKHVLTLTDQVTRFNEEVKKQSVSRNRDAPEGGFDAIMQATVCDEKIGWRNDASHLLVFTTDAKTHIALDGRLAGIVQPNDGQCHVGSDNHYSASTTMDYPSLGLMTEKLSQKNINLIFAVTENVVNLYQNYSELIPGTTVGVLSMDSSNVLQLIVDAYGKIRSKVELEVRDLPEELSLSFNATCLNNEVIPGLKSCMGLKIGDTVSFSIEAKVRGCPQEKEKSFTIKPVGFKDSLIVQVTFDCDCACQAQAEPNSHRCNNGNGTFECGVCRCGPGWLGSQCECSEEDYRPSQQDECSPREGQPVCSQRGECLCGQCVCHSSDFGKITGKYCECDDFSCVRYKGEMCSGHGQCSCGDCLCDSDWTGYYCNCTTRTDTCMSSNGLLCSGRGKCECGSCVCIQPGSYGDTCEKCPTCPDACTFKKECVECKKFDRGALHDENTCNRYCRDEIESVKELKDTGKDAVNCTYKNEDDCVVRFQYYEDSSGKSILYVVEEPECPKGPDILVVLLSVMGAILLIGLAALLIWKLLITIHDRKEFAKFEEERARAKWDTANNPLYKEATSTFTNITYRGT

SMILES	IC50
C[C@H](Cc1ccc([C@H](C)CC(=O)O)s1)NC(=O)c1ccc(C(=N)N)cc1 (racemic) [Example 40, (RS)-5-[(RS)-2-(p-amidinobenzamido)propyl]-β-methyl-2-thiophene-propionic acid]	40 nM
COC(=O)COc1ccc(CCNC(=O)c2ccc(C(=N)N)cc2)cc1 [Example 1, Methyl p-[2-(p-amidinobenzamido)ethyl]phenoxyacetate]	370 nM
N=C(N)c1ccc(C(=O)NCCc2ccc(OCC(=O)O)cc2)cc1 [Example 2, p-[2-(amidinobenzamido)ethyl]phenoxyaceticacid]	40 nM
N=C(N)c1ccc(S(=O)(=O)NCCOc2ccc(CC(=O)O)cc2)cc1 [Example 10, p-[2-(p-amidinophenylsulphonamido)ethoxy]phenylacetic acid]	640 nM
N=C(N)c1ccc(S(=O)(=O)NCCc2ccc(OCC(=O)O)cc2)cc1 [Example 12, p-[2-(p-amidinobenzenesulphonamido)ethyl]phenoxyacetic acid]	100 nM
N=C(N)c1ccc(S(=O)(=O)N(CCc2ccc(OCC(=O)O)cc2)Cc2ccccc2)cc1 [Example 18, p-[2-(p-amidino-N-benzylphenylsulphonamido)ethyl]phenoxyacetic acid]	720 nM
N=C(N)c1ccc(S(=O)(=O)NCC(O)c2ccc(OCC(=O)O)cc2)cc1 (centres unmarked) [Example 20, p-[2-(p-amidinobenzenesulphonamido)-1-hydroxyethyl]phenoxyacetic acid]	470 nM
CC(CC(=O)O)c1ccc(CCNS(=O)(=O)c2ccc(C(=N)N)cc2)cc1 (stereo not drawn) [Example 36, p-[2-(p-amidinophenylsulphonamido)ethyl]-β-methyl-hydrocinnamic acid]	100 nM
N=C(N)c1ccc(S(=O)(=O)NCCCc2ccc(CC(=O)O)cc2)cc1 [Example 46, p-[3-(p-amidinophenylsulphonamido)propyl]phenylacetic acid]	300 nM
N=C(N)c1ccc(C(=O)NCCc2ccc(OCC(=O)O)cc2)cn1 [Example 48]	30 nM
N=C(N)c1ccc(CC(=O)NCc2ccc(OCC(=O)O)cc2)cc1 [Example 78, p-[2-(p-amidinophenyl)acetamido]-p-tolyloxyacetic acid]	970 nM
N=C(N)c1ccc(C(=O)N[C@@H](CO)Cc2ccc(OCC(=O)O)cc2)cc1 [Example 81, p-[(R)-2-(p-amidinobenzamido)-3-hydroxypropyl)phenoxyacetic acid]	80 nM
COC(=O)COc1ccc(C(=O)CN(C)C(=O)c2ccc(C(=N)N)cc2)cc1OCC(=O)OC [Example 82, dimethyl [4-(p-amidino-N-methylbenzamido)acetyl-o-phenylenedioxy]diacetate]	8.1 nM
CN(CC(=O)c1ccc(OCC(=O)O)c(OCC(=O)O)c1)C(=O)c1ccc(C(=N)N)cc1 [Example 83, [4-(p-amidino-N-methylbenzamido)acetyl-o-phenylenedioxy]diacetic acid]	0.07 nM
